Assay results: the supplement of paper PMC10307832

What was measured:
Experiment in all cases: relative viability (nuclei count vs DMSO), 5 days (fraction); higher = more cells survive
[1] = compound: C1COCCN1C2=NC(=NC3=C2OC4=C3C=CC=N4)C5=CC(=CC=C5)NC(=O)C6=CN=C(C=C6)N + N=C(N)NC(=N)NCCc1ccccc1 [Phenformin] (partner 250 µM)
Method in brief: (§1)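 Each reported value is a median over duplicate plates. It expresses relative viability: treated-well nuclei count divided by vehicle-well nuclei count. Lung cancer cell lines in 1536-well plates were dosed by pin tool a day after seeding, alone with one drug or with a fixed anchor-drug dose plus five library-drug doses (not always all listed) in √10 steps, and nuclei were counted after 5 days.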

SGI-1776 + Phenformin = compound: CN1CCC(CNc2ccc3ncc(-c4cccc(OC(F)(F)F)c4)n3n2)CC1 [SGI-1776] + N=C(N)NC(=N)NCCc1ccccc1 [Phenformin] (partner 250 µM)
Method in brief: as §1

SGI-1776 + Crizotinib = compound: CN1CCC(CNc2ccc3ncc(-c4cccc(OC(F)(F)F)c4)n3n2)CC1 [SGI-1776] + C[C@@H](Oc1cc(-c2cnn(C3CCNCC3)c2)cnc1N)c1c(Cl)ccc(F)c1Cl [Crizotinib] (partner 1 µM)
Method in brief: as §1

Entinostat + Tozasertib = compound: Nc1ccccc1NC(=O)c1ccc(CNC(=O)OCc2cccnc2)cc1 [Entinostat] + Cc1cc(Nc2cc(N3CCN(C)CC3)nc(Sc3ccc(NC(=O)C4CC4)cc3)n2)n[nH]1 [Tozasertib] (partner 0.1 µM)
Method in brief: as §1

Cell Line	relative viability ([1]; first compound 0.02 µM)	relative viability ([1]; first compound 0.06325 µM)	relative viability ([1]; first compound 0.2 µM)	relative viability ([1]; first compound 0.6325 µM)	relative viability ([1]; first compound 2 µM)	relative viability (SGI-1776 + Phenformin; first compound 0.08 µM)	relative viability (SGI-1776 + Phenformin; first compound 0.8 µM)	relative viability (SGI-1776 + Phenformin; first compound 2.53 µM)	relative viability (SGI-1776 + Phenformin; first compound 8 µM)	relative viability (SGI-1776 + Crizotinib; first compound 0.08 µM)	relative viability (SGI-1776 + Crizotinib; first compound 0.8 µM)	relative viability (SGI-1776 + Crizotinib; first compound 2.53 µM)	relative viability (SGI-1776 + Crizotinib; first compound 8 µM)	relative viability (Entinostat + Tozasertib; first compound 0.02 µM)	relative viability (Entinostat + Tozasertib; first compound 0.06325 µM)	relative viability (Entinostat + Tozasertib; first compound 0.2 µM)	relative viability (Entinostat + Tozasertib; first compound 0.6325 µM)	relative viability (Entinostat + Tozasertib; first compound 2 µM)
LXF-289	0.523	0.536	0.541	0.49	0.383	0.54	0.534	0.496	0.486	0.803	0.805	0.813	0.786	0.203	0.172	0.204	0.17	0.145
NCI-H1703										1.17	0.521	0.272	0.124					
NCI-H2170	0.427	0.439	0.408	0.407	0.388	0.388	0.382	0.345	0.307	1.13	1.28	1.17	0.969	0.685	0.677	0.461	0.391	0.172
NCI-H522	0.638	0.701	0.63	1.49	0.599	0.708	0.676	0.698	0.563					0.576	0.509	0.516	0.48	0.371
LOU-NH91	0.709	0.723	0.724	0.721	0.652	0.754	0.733	0.716	0.565	0.776	0.747	0.693	0.593	0.736	0.671	0.616	0.523	0.344
NCI-H1355	0.449	0.491	0.461	0.433	0.434	0.451	0.423	0.401	0.3	1.1	1.03	1.01	0.935	0.525	0.484	0.412	0.303	0.275
NCI-H322M	0.781	0.786	0.683	0.735	0.508	0.875	0.846	0.786	0.552	0.998	0.824	1.01	0.664	0.505	0.555	0.519	0.461	0.448
NCI-H1395	0.396	0.451	0.461	0.415	0.384	0.464	0.434	0.46	0.413					0.668	0.721	0.696	0.496	0.47
NCI-H2023	0.424	0.457	0.346	0.32	0.156	0.379	0.377	0.332	0.282	0.565	0.621	0.56	0.333	0.218	0.221	0.138	0.0768	0.0712
NCI-H1666	0.577	0.608	0.473	0.567	0.442	0.615	0.544	0.527	0.502	1.08	0.934	0.803	0.668	0.562	0.535	0.471	0.405	0.346
Calu-6										0.806	0.624	0.402	0.289					
NCI-H2342	0.651	0.564	0.565	0.695	0.576	0.696	0.669	0.532	0.501					0.465	0.429	0.377	0.372	0.333
NCI-H1563	0.647	0.636	0.654	0.593	0.532	0.694	0.595	0.63	0.548	0.833	0.888	0.906	0.785					
IA-LM										0.514	0.989		0.69					
NCI-H1299										0.969	0.969	0.917	0.807					
NCI-H1623	0.634	0.587	0.6	0.562	0.407	0.611	0.571	0.556	0.626					0.498	0.442	0.373	0.352	0.305
SW 900	0.425	0.674	0.557	0.376	0.345	0.731	0.563	0.538	0.348					0.573	0.62	0.515	0.282	0.206
NCI-H1648														0.566	0.483	0.414	0.411	0.341
NCI-H1793	0.393	0.483	0.404	0.372	0.277	0.389	0.219	0.262	0.249					0.309	0.308	0.284	0.205	0.175
A549		0.159	0.142	0.206	0.063	0.122	0.148	0.11	0.155	0.789	0.843	0.553	0.138					
NCI-H1792	0.245	0.471	0.211	0.218	0.179	0.335	0.257	0.135	0.257	1.04	1.05	0.965	1.09					
